In ChEMBL document CHEMBL1131321, “Pharmacophoric requirements for cannabinoid side chains: multiple bond and C1'-substituted delta 8-tetrahydrocannabinols” (J Med Chem, 1998):

Experiments:
Cannabinoid receptor 1 = Cannabinoid receptor 1 (Rattus norvegicus, UniProt P20272); assay: The compound was evaluated for its affinity towards cannabinoid receptor 1 (CB1) in rat brain; format: tissue-based
Cannabinoid receptor 2 = Cannabinoid receptor 2 (Mus musculus, UniProt P47936); assay: The compound was evaluated for its affinity towards cannabinoid receptor 2 (CB2) in mouse spleen; format: tissue-based
Chain of Cannabinoid receptor 2 (P47936 whole entry): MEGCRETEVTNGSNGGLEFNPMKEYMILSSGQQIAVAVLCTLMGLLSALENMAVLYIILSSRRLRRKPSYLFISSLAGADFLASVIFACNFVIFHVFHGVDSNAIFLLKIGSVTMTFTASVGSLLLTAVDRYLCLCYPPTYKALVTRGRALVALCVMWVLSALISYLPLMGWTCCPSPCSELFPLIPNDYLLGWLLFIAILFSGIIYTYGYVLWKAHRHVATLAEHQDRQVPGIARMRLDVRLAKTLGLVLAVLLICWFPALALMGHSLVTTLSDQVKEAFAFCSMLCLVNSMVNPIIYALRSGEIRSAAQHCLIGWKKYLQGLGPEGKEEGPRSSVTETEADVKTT

Chain of Cannabinoid receptor 1 (P20272 whole entry): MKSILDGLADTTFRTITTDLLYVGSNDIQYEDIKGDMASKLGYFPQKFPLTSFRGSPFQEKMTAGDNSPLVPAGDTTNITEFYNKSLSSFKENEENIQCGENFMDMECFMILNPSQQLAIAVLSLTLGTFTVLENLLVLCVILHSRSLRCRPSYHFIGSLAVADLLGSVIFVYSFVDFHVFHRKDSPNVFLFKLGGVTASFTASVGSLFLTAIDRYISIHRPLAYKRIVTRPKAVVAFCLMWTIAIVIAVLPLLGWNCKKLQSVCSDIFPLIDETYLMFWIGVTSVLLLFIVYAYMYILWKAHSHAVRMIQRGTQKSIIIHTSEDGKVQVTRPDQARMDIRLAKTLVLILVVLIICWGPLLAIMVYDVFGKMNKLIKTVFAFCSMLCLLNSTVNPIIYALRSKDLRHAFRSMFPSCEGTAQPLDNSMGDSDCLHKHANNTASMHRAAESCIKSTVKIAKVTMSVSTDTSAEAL

Row | SMILES | Ki (Cannabinoid receptor 1) [nM] | Ki (Cannabinoid receptor 2; read-out: Ki) [nM] | Ki (Cannabinoid receptor 2) [nM]
1 | CCCCCCC(O)c1cc(O)c2c(c1)OC(C)(C)[C@@H]1CC=C(C)C[C@@H]21 (stereo partly specified) | 86.4 | 65.6 | –
2 | CCCCCCC1(c2cc(O)c3c(c2)OC(C)(C)[C@@H]2CC=C(C)C[C@@H]32)CC1 | 2.17 | 3.3 | –
3 | CCCCCC#Cc1cc(O)c2c(c1)OC(C)(C)[C@@H]1CC=C(C)C[C@@H]21 | 0.65 | 3.1 | –
4 | C=C(C)[C@@H]1CCC(C)=C[C@H]1c1c(O)cc(C2(CCCCCC)SCCS2)cc1O | 136 | 50.4 | –
5 | CCCCCCC(=O)c1cc(O)c2c(c1)OC(C)(C)[C@@H]1CC=C(C)C[C@@H]21 | 21.7 | 83.7 | –
6 | CCCCCCC1(c2cc(O)c3c(c2)OC(C)(C)[C@@H]2CC=C(C)C[C@@H]32)SCCS1 | – | – | 0.52
